Results published in patent publication US7026339B2, “Inhibitors of HCV NS5B polymerase” (priority 2003, dated 2006).

System: HuH-7 replicon cells 5–15 and 9–13 (HCV replication)
Test: Inhibition of viral replication in HuH-7 replicon cells (HCV RNA / GAPDH RNA by multiplex RT-PCR)
Format: cell-based
Conditions: Hepatitis C virus, 72 h; inhibiting 50% of replication; HuH-7 replicon cells, 3 days; read-out: IC50
Protocol: Compounds were evaluated for inhibition of viral replication according to published procedures (Bartenschlager, R., et. al., Science, 1999, 285, 110) with modifications as follows.
HuH-7 replicon cells 5–15 and 9–13 were cultured in Dulbecco's minimal essential medium (DMEM) containing high glucose and supplemented with 10% fetal bovine serum (FBS), L-glutamine (2 mM), non-essential amino acids (1×), Penicillin (100 IU/mL)/Streptomycin (100 μg/mL) and G418 (Geneticin, 750 μg/mL). Unless otherwise specified, all media components were obtained from Invitrogen. Replicon cell line stocks were maintained as sub-confluent monolayers by passaging every Monday (1:6 split) and Thursday (1:10 split) and incubated at 37° C. with 5% CO2. Tissue culture plates (96-well white clear bottom plates, Corning #3610) were seeded at 7×10^3 cells/well and incubated for 24 hours prior to addition of the compounds.
Compounds in dry powder form were diluted in DMSO (30 mM stock). Serial dilutions of each Compound in DMSO (10 mM–0.1 mM) were performed in a 96-well polypropylene plate using a microtiter format. Culture media (200 μl) was added to the corresponding wells of a sterile 96-well round bottom plate. Diluted compound (2 μl) was added to the corresponding wells of the medial plate (final compound concentrations: 100 μM–1 μM). Culture media was removed from the corresponding wells of the 96-well plate containing the replicon cells and 150 μl diluted compound added. Media containing 1% DMSO and a serially diluted IFN were included on each plate. The cultures were incubated at 37° C. with 5% CO2 for 3 days. Cultures were observed visually for cytotoxicity or compound precipitation prior to RNA extraction described below.
Total cellular RNA was extracted by spin column technology (RNeasy 96, Qiagen) using the vacuum methodology according to the manufacturer's protocol. In brief, culture media was removed and 100 μl RLT lysis buffer containing 0.14M β-mercaptoethanol (β-ME) was added to each well. The plate was kept flat on the laboratory bench and shaken vigorously to lyse the cells. An equal volume of 70% ETOH was mixed with the lysate and added to the corresponding columns of the RNeasy 96-well plate. Vacuum was applied to draw the lysate through the filters. After ventilating the plate, buffer RW1 (1 mL) was drawn through each column. The waste tray was emptied and the filters washed twice with buffer RPE (1 mL/wash). After ventilating the tray, the RNeasy plate was removed and the bottom of the plate struck several times on a stack of paper towels to remove excess wash buffer. The waste tray was removed from the vacuum apparatus and the RNeasy 96-well plate dried by applying vacuum for 10 minutes. Total cellular RNA was eluted from the columns with two washes of 60 μl RNase-free water.
Relative quantitative multiplex RT-PCR was performed using TaqMan (TM) EZ RT Core Reagent kit (Perkin Elmer) according to the manufacturer's protocol (PE Applied Biosystems User Bulletin #2). Primer 061 (NT 61–82) and 139 (NT 139–158) amplifying a short region in the 5′ untranslated region of the HCV genome were utilized at 300 nM final concentrations. Probe #3 (NT 97–119) labeled with FAM reporter dye was utilized at 200 nM final concentration. Pre-developed human GAPDH primers and probe labeled with VIC reporter dye were obtained from PE Applied Biosystems (# 4310884E) and used according to the manufacturer's protocol. TM RT-PCR master mix was prepared containing the above primers/probe for both target RNA. Total cellular RNA (2 μl) was added to the reaction tubes of a 96-well optical plate that corresponded to the wells of the replicon culture plate. The final volume of each reaction was 50 μl. A standard curve was prepared from ten-fold serial dilutions of total cellular RNA extracated from 10^6 replicon cells and eluted in 30 μl RNase-free water. […]

`O=C(Cc1c[nH]cn1)N/N=C/c1ccccc1OS(=O)(=O)c1ccc(C(F)(F)F)cc1` [Compound 5, 2-((E)-{2-[2-(1H-imidazol-4-yl)acetyl]hydrazono}methyl)phenyl 4-(trifluoromethyl)benzenesulfonate] was tested. Which IC50 did it give?
Its IC50 is under 5 µM.

Which IC50 does the source give for `COc1cccc(CC(=O)N/N=C/c2c(OC)cccc2OS(=O)(=O)c2ccc(C(F)(F)F)cc2)c1` [Compound 170, 3-methoxy-2-((E)-{[(3-methoxyphenyl)acetyl]hydrazono}methyl)-phenyl 4-(trifluoromethyl)benzenesulfonate] here?
Its IC50 is under 5 µM.

`O=C(Cc1ccccc1Oc1ccccc1)N/N=C/c1ccccc1OS(=O)(=O)c1ccc(C(F)(F)F)cc1` [Compound 57, 2-((E)-{2-[2-(2-phenoxyphenyl)acetyl]hydrazono}methyl)-phenyl 4-(trifluoromethyl)benzenesulfonate] was tested. Which IC50 did it give?
Its IC50 is under 5 µM.

How did the IC50 turn out when `COc1cccc(CC(=O)N/N=C/c2ccccc2OS(=O)(=O)c2ccc(OC(C)C)cc2)c1` [Compound 186, 2-((E)-{2-[2-(3-methoxyphenyl)acetyl]hydrazono}methyl)-phenyl 4-isopropoxybenzenesulfonate] was run?
The IC50 was under 5 µM.

With `O=C(Cc1cccc(Cl)c1)N/N=C/c1c(F)cccc1OS(=O)(=O)c1ccc(C(F)(F)F)cc1` [Compound 206, 2-((E)-{[(3-chlorophenyl)acetyl]hydrazono}methyl)-3-fluorophenyl 4-(trifluoromethyl)benzenesulfonate] as the compound, how does the IC50 read?
Its IC50 is under 5 µM.

With `O=C(Cc1ccccc1)N/N=C/c1ccccc1OS(=O)(=O)c1ccc(F)cc1Cl` [Compound 137, 2-{(E)-[2-(2-phenylacetyl)hydrazono]methyl}phenyl 2-chloro-4-fluorobenzenesulfonate] as the compound, how does the IC50 read?
The IC50 was 5 to 50 µM.

With `COc1cccc(CC(=O)N/N=C/c2c(C)cccc2OS(=O)(=O)c2ccc(C(F)(F)F)cc2)c1` [Compound 203, 2-((E)-{[(3-methoxyphenyl)acetyl]hydrazono}methyl)-3-methylphenyl 4-(trifluoromethyl)benzenesulfonate] as the compound, how does the IC50 read?
Its IC50 is under 5 µM.

`O=C(N/N=C/c1ccccc1OS(=O)(=O)c1ccc(C(F)(F)F)cc1)c1ccccc1F` [Compound 90, 2-{(E)-[2-(2-fluorobenzoyl)hydrazono]methyl}phenyl 4-(trifluoromethyl)benzenesulfonate] was tested. Which IC50 did it give?
Its IC50 is 5 to 50 µM.

How did the IC50 turn out when `CCCCOc1ccc(S(=O)(=O)Oc2ccccc2/C=N/NC(=O)Cc2cccc(OC)c2)cc1` [Compound 199, 2-((E)-{2-[2-(3-methoxyphenyl)acetyl]hydrazono}methyl)-phenyl 4-butoxybenzenesulfonate] was run?
Its IC50 is under 5 µM.

For `CCC(C)(C)c1ccc(S(=O)(=O)Oc2ccccc2/C=N/NC(=O)Cc2cccc(OC)c2)cc1` [Compound 198, 2-((E)-{2-[2-(3-methoxyphenyl)acetyl]hydrazono}methyl)-phenyl 4-(1,1-dimethylpropyl)benzenesulfonate], which IC50 is on record?
Its IC50 is under 5 µM.

How did the IC50 turn out when `O=C(Cc1c(Cl)ccc(Cl)c1Cl)N/N=C/c1ccccc1OS(=O)(=O)c1ccc(C(F)(F)F)cc1` [Compound 22, 2-((E)-{2-[2-(2,3,6-trichlorophenyl)acetyl]hydrazono}methyl)-phenyl 4-(trifluoromethyl)benzenesulfonate] was run?
Its IC50 is over 50 µM.

`CCCc1ccc(S(=O)(=O)Oc2ccccc2/C=N/NC(=O)Cc2ccccc2)cc1` [Compound 134, 2-{(E)-[2-(2-phenylacetyl)hydrazono]methyl}phenyl 4-propylbenzenesulfonate] was tested. Which IC50 did it give?
Its IC50 is under 5 µM.

How did the IC50 turn out when `O=C(Cc1ccccc1)N/N=C/c1ccccc1OS(=O)(=O)c1ccc(F)cc1` [Compound 129, 2-{(E)-[2-(2-phenylacetyl)hydrazono]methyl}phenyl 4-fluorobenzenesulfonate] was run?
The IC50 was 5 to 50 µM.

For `CN(C)c1cccc(OCC(=O)N/N=C/c2ccccc2OS(=O)(=O)c2ccc(C(F)(F)F)cc2)c1` [Compound 86, 2-[(E)-(2-{2-[3-(dimethylamino)phenoxy]acetyl}hydrazono)-methyl]phenyl 4-(trifluoromethyl)benzenesulfonate], which IC50 is on record?
Its IC50 is over 50 µM.

Which IC50 does the source give for `O=C(Cc1ccccc1)N/N=C/c1ccccc1OS(=O)(=O)c1ccccc1Br` [Compound 140, 2-{(E)-[2-(2-phenylacetyl)hydrazono]methyl}phenyl 2-bromobenzenesulfonate] here?
Its IC50 is over 50 µM.

For `CCCCCc1ccc(S(=O)(=O)Oc2ccccc2/C=N/NC(=O)Cc2cccc(OC)c2)cc1` [Compound 183, 2-((E)-{2-[2-(3-methoxyphenyl)acetyl]hydrazono}methyl)-phenyl 4-pentylbenzenesulfonate], which IC50 is on record?
The IC50 was under 5 µM.

For `O=C(Cc1cc(F)cc(C(F)(F)F)c1)N/N=C/c1ccccc1OS(=O)(=O)c1ccc(C(F)(F)F)cc1` [Compound 23, 2-[(E)-(2-{2-[3-fluoro-5-(trifluoromethyl)phenyl]acetyl}hydrazono)-methyl]phenyl 4-(trifluoromethyl)benzenesulfonate], which IC50 is on record?
The IC50 was under 5 µM.

How did the IC50 turn out when `Cc1ccc(/C=N/NC(=O)Cc2cccc(Cl)c2)c(OS(=O)(=O)c2ccc(C(F)(F)F)cc2)c1` [Compound 179, 2-((E)-{[(3-chlorophenyl)acetyl]hydrazono}methyl)-5-methylphenyl 4-(trifluoromethyl)benzenesulfonate] was run?
The IC50 was over 50 µM.

Which IC50 does the source give for `O=C(Cc1cccc(Cl)c1)N/N=C/c1ccncc1OS(=O)(=O)c1ccc(C(F)(F)F)cc1` [Compound 227, 4-((E)-{2-[2-(3-chlorophenyl)acetyl]hydrazono}methyl)-pyridin-3-yl 4-(trifluoromethyl)benzenesulfonate] here?
Its IC50 is under 5 µM.

With `Cc1ccc(S(=O)(=O)Cc2ccccc2/C=N/NC(=O)Cc2cccc(Cl)c2)cc1` [Compound 231, 2-(3-chlorophenyl)-N′-[(1E)-(2-{[(4-methylphenyl)sulfonyl]methyl}phenyl)-methylene]acetohydrazide] as the compound, how does the IC50 read?
The IC50 was under 5 µM.

Which IC50 does the source give for `COc1cc(CC(=O)N/N=C/c2ccccc2OS(=O)(=O)c2ccc(C(F)(F)F)cc2)cc(OC)c1` [Compound 50, 2-((E)-{2-[2-(3,5-dimethoxyphenyl)acetyl]hydrazono}methyl)-phenyl 4-(trifluoromethyl)benzenesulfonate] here?
Its IC50 is under 5 µM.

How did the IC50 turn out when `COc1cccc(CC(=O)N/N=C/c2cc(F)ccc2OS(=O)(=O)c2ccc(C(F)(F)F)cc2)c1` [Compound 172, 4-fluoro-2-((E)-{[(3-methoxyphenyl)acetyl]hydrazono}methyl)-phenyl 4-(trifluoromethyl)benzenesulfonate] was run?
The IC50 was under 5 µM.

With `COc1cccc(CC(=O)N/N=C/c2ccc(C)cc2OS(=O)(=O)c2ccc(C)cc2)c1` [Compound 177, 2-((E)-{[(3-methoxyphenyl)acetyl]hydrazono}methyl)-5-methylphenyl 4-methylbenzenesulfonate] as the compound, how does the IC50 read?
Its IC50 is under 5 µM.

For `COc1cccc(CC(=O)N/N=C/c2cc(Cl)ccc2OS(=O)(=O)c2ccc(C)cc2)c1` [Compound 155, 4-chloro-2-((E)-{[(3-methoxyphenyl)acetyl]hydrazono}methyl)-phenyl 4-methylbenzenesulfonate], which IC50 is on record?
Its IC50 is under 5 µM.

With `Cc1ccccc1S(=O)(=O)Oc1ccccc1/C=N/NC(=O)Cc1ccccc1` [Compound 110, 2-{(E)-[2-(2-phenylacetyl)hydrazono]methyl}phenyl 2-methylbenzenesulfonate] as the compound, how does the IC50 read?
The IC50 was over 50 µM.

How did the IC50 turn out when `O=C(Cc1ccc(F)c(Cl)c1)N/N=C/c1ccccc1OS(=O)(=O)c1ccc(C(F)(F)F)cc1` [Compound 9, 2-((E)-{2-[2-(3-chloro-4-fluorophenyl)acetyl]hydrazono}methyl)-phenyl 4-(trifluoromethyl)benzenesulfonate] was run?
Its IC50 is under 5 µM.

`COc1cccc(CC(=O)N/N=C/c2ccc(Cl)cc2OS(=O)(=O)c2ccc(C)cc2)c1` [Compound 209, 5-chloro-2-((E)-{[(3-methoxyphenyl)acetyl]hydrazono}methyl)-phenyl 4-methylbenzenesulfonate] was tested. Which IC50 did it give?
The IC50 was under 5 µM.
